Reference: US20230323336A1, “HIGH-THROUGHPUT, DROPLET-BASED SINGLE CELL RNA SEQUENCING” (priority 2021, published 2023)
Values after ≈ are worked out from the molar mass of the structure shown.

Columns and labels:
[1] = system: MGH66; test: MIC by standard microdilution, strain MGH66; assay type: cell-based, K. pneumoniae; conditions: for MIC: Klebsiella pneumoniae
Procedure: (§1) The cells for flow cytometry were prepared using the same scheme as the meropenem-treated sample for BacDrop. After treating with meropenem at 2 µg/mL for 30 minutes, cells were diluted into PBS at the final concentration of 10^6 cells/mL and immediately run through flow cytometer. For the flow cytometry including dead-cell staining, 10 µL propidium iodide (1 mg/mL) (Invitrogen, cat# P1304MP) was mixed with 1 mL PBS. Cells after treatment were then diluted in the staining buffer at the final concentration of 10^6 cells/mL, and incubated in the dark at room temperature for 15 minutes followed by running through flow cytometer. To sort GFP-low and GFP-high populations, cells were run through fluorescence-activated cell sorting (FACS). Applicants sorted ~10^6 cells into 2 mL LB without or with meropenem (2 µg/mL) from each population. A 50 µL aliquot from cells sorted in LB medium without antibiotics was immediately diluted and plated on LB agar plates without antibiotics. The colony forming unites (CFU) on LB agar plates were enumerated to calculate the survival rates. The rest of the cells was used to measure MICs using the standard microdilution protocol^29 or proceeded with the persister assay. For the persister assay, cells were cultured at 37° C. with shaking. At each time points, a 50 µL aliquot was taken, diluted and plated on LB agar plates without antibiotics. Three replicates were performed in each experiment.

[2] = system: UCI38; test: MIC by standard microdilution, strain UCI38; assay type: cell-based, K. pneumoniae; conditions: for MIC: Klebsiella pneumoniae
Procedure: as §1

[3] = system: K. pneumoniae MGH66; assay type: cell-based
Procedure: (§2) K.pneumoniae, E.coli, and P. aeruginosa were cultured in Luria-Bertani (LB) medium or Mueller-Hinton Broth (MHB) with shaking at 37° C.E.faecium was cultured in Todd-Hewitt broth (THB) with shaking at 37° C. For the GFP experiment, E.coli strains expressing gfp driven by different promoters were cultured separately in LB at 37° C. Early exponential growth phase cells (OD600 ~0.2) were collected and fixed immediately. For the antibiotic treatment experiment, K.pneumoniae clinical isolate MGH66 was cultured in MHB at 37° C. until early exponential phase. Then the culture was diluted to OD600 0.05 in MHB. After growing for two doublings (~40 min, OD600 ~0.2), the cultures were split into four equal volume cultures. One culture was left untreated, while the other three were treated with relevant antibiotic at breakpoint concentrations set by the Clinical and Laboratory Standards Institute (CLSI): 2 µg/mL for meropenem, 1 µg/mL for ciprofloxacin and 4 µg/mL for gentamicin. After 30 min, 7 mL of cells were collected from each of these cultures, and immediately proceeded with the cell fixation protocol. For the bulk RNA-seq experiments, samples were collected using the same treatment schemes, and three biological replicates were included in each condition. For the BIDMC35 experiment, BIDMC35 was cultured in LB medium at 37° C. until early exponential phase (OD600 ~0.2). 7 mL cells were then collected and immediately proceed with the cell fixation protocol.
All reagents (Table 5) for cell fixation and permeabilization were kept ice-cold. […] (Digital Platform Rocker Shaker, VWR). […] Subsequent centrifugations were carried out at 7000 × g for 5 minutes at 4° C. […] Cells were centrifuged and resuspended in 700 µL50% Ethanol in PBS-RI. Cells were then washed twice with PBS-RI. After the second wash, cells were resuspended in 1 mL100 mM Tris-HCL (pH 7.5) supplemented with 0.1 U/uL NxGen RNase inhibitor.
Insufficient permeabilization may result in inefficient rRNA depletion and gDNA removal. For 1 permeabilization reaction, up to 40 million cells were centrifuged and resuspended in 250 µL0.04% Tween-20 in 1x PBS. If more cells are desired, multiple parallel reactions can be set up. Immediately following a 3-minute incubation on ice, 1 mL cold PBS-RI was added, and cells were spun down and resuspended in 200 µL lysozyme mix (100 mM Tris (pH 8.0), 50 mM EDTA pH 8.0, 0.25 U/µL NxGen RNase Inhibitor, 2.5 mg/mL lysozyme). Cells were then incubated at 37° C. for 15 minutes. After the incubation, 1 mL PBS-RI was added and cells were washed twice with 175 µL PBS-RI. After the second wash, cells were resuspended in 150 µL PBS (without RNase inhibitor added) and cell concentrations were measured.
Immediately after cell permeabilization, up to 40 million cells were centrifuged and resuspended in 11 µL nuclease-free H2O. 2 µL NEBNext Bacterial rRNA depletion solution and 2 µL Probe Hybridization Buffer (NEB, CN E7850) were mixed with cells on ice. The hybridization was conducted per the following (lid temperature set to 55° C.): 50° C. for 2 minutes, ramp down to 22° C. at 0.1° C. /second, and hold at 22° C. for 5 minutes. Probe hybridization was immediately followed by RNase H digestion by mixing the probe-hybridized cells with 2 µL RNase H reaction buffer, 2 µL Thermostable RNase H (NEB, CN E7850), and 1 µL nuclease-free H2O, followed by a 30-minute incubation at 50° C. (lid temperature set to 55° C.). […] The reaction was incubated at room temperature for 30 minutes, and the DNase treatment was stopped by adding 1 µL Stop Solution (50 mM EDTA) and incubating at 50° C. for 10 minutes. After the incubation, cells were centrifuged and washed twice with 100 µL PBS-RI. After the second wash, cells were resuspended in 20 µL0.5x PBS supplemented with 1 U/µL SUPERase-In RNase inhibitor and used immediately for in-cell reverse transcription.

[4] = system: K. pneumoniae MGH66; test: Bulk RNA-seq of antibiotic-treated MGH66; assay type: cell-based; conditions: MGH66, OD600 ~0.2, 30 minutes treatment
Procedure: as §2
To construct sequencing libraries from bacterial cultures, cell pellets collected from 1 mL early exponential phase cultures were re-suspended in 500 µL TRIzol Reagents (ThermoFisher, CN 15596026) and frozen at -80 C for at least 20 min. Cells were then thawed and mixed with 250 µL of 0.1 mm diameter Zirconia/Silica beads (BioSpec Products), and lysed mechanically via bead-beating for 90 second at 10 m/sec on a FastPrep (MP Bio). After addition of 0.1 mL chloroform, each sample tube was mixed thoroughly by inversion, incubated for 3 minutes at room temperature, and centrifuged at 12,000 xg for 15 minutes at 4° C. […]

[5] = system: BIDMC35; test: MIC by standard microdilution, strain BIDMC35; assay type: cell-based, K. pneumoniae; conditions: for MIC: Klebsiella pneumoniae
Procedure: as §1

[6] = system: MGH66; test: RNA FISH of meropenem-treated MGH66; assay type: cell-based, K. pneumoniae; conditions: meropenem-treated MGH66, 20 fields of view
Procedure: RNA FISH probes were designed using Design Probes tool of DECIPHER^32. 3 - 5 probes were designed for each target gene (Table 11). Probes were synthesized at Integrated DNA technologies and labeled with either Cy3 or Alex488 dye at the 5′. Probes of the same gene were pooled together and diluted into 10 µM stocks. Meropenem-treated MGH66 cells were fixed and permeabilized using the same protocol as the cell fixation and permeabilization steps in BacDrop. The hybridization was carried out in 40% hybridization buffer at 50° C. overnight and the following washing steps of washing were performed as described previously^33. Cells were imaged using the DeltaVision widefield deconvolution imaging system with a 60x objective. ImageJ was used for image data analysis and cell quantification.

[7] = system: E. coli 10ß; test: MIC by standard microdilution, strain E. coli 10ß; assay type: cell-based
Procedure: as §1, with “Three replicates were performed in each experiment.” left out

[8] = system: MGH66:PyhcN:gfp and MGH66:PcspD:gfp; test: Flow cytometry/FACS of GFP reporter strains with live/dead staining; assay type: cell-based, K. pneumoniae
Excerpt: (§3) Applicants amplified the promoter region of cspD or yhcN from MGH66 and ligated it into pUA139^26 using the BamHI and XhoI sites, resulting in pUA139-PcspD and pUA139-PyhcN. The construct was then transformed into E.coli DH5a and the plasmids were extracted and verified using Sanger sequencing. Electrocompetent cells of MGH66 was made as previously reported^22. The extracted plasmids were then transformed into MGH66 via electroporation, generating MGH66: PcspD:gfp and MGH66: PyhcN:gfp.
as §1

[9] = system: MGH66:PcspD:gfp sorted subpopulations; MGH66 over-expressing cspD; test: Persister assay (CFU over time under meropenem); assay type: cell-based, K. pneumoniae; conditions: meropenem 2 µg/mL
Procedure: as §1, with “Three replicates were performed in each experiment.” left out

[10] = system: MGH66:pBA D: cspD; test: MIC by standard microdilution, strain MGH66:pBAD:cspD; assay type: cell-based, K. pneumoniae; conditions: cspD induced with 1% arabinose
Procedure: as §1, with “Three replicates were performed in each experiment.” left out

[11] = system: MGH66; test: Killing kinetics of MGH66 treated with antibiotics (CFU); assay type: cell-based, K. pneumoniae; conditions: MGH66, at 30 minutes
Procedure: At each time points, cells from meropenem treatment (green), Ciprofloxacin treatment (blue), Gentamicin treatment (purple), and the untreated samples were diluted and plated on LB agar plates without antibiotics. CFUs from each condition were normalized to the CFUs of the untreated samples at the same time points to calculate the killing rates for each time points. The experiment was repeated three times and the error bars are plotted as standard deviation.

[12] = system: MGH66: PcpsD:gfp; test: MIC by standard microdilution, reporter strain MGH66: PcpsD:gfp; assay type: cell-based, K. pneumoniae
Excerpt: as §3
(§4) The cells for flow cytometry were prepared using the same scheme as the meropenem-treated sample for BacDrop. After treating with meropenem at 2 µg/mL for 30 minutes, cells were diluted into PBS at the final concentration of 10^6 cells/mL and immediately run through flow cytometer. For the flow cytometry including dead-cell staining, 10 µL propidium iodide (1 mg/mL) (Invitrogen, cat# P1304MP) was mixed with 1 mL PBS. Cells after treatment were then diluted in the staining buffer at the final concentration of 10^6 cells/mL, and incubated in the dark at room temperature for 15 minutes followed by running through flow cytometer. To sort GFP-low and GFP-high populations, cells were run through fluorescence-activated cell sorting (FACS). Applicants sorted ~10^6 cells into 2 mL LB without or with meropenem (2 µg/mL) from each population. […]

[13] = system: MGH66: PyhcN:gfp; test: MIC by standard microdilution, reporter strain MGH66: PyhcN:gfp; assay type: cell-based, K. pneumoniae
Excerpt: as §3, §4

[14] = 30 minutes of meropenem treatment
[15] = meropenem-treated MGH66, 2 µg/mL, 30 min

O=C(O)c1cn(C2CC2)c2cc(N3CCNCC3)c(F)cc2c1=O [Ciprofloxacin, ciprofloxacin]
MIC [1]: 0.03 µg/mL (≈ 0.0905 µM)
MIC [2]: 32 µg/mL (≈ 96.6 µM)
heterogeneity of single-cell transcriptional response ([3]; MGH66, 30 min treatment): did not detect obvious heterogeneity of response
transcriptional response in bulk RNA-seq relative to untreated control [4]: induced genes involved in SOS response
MIC [5]: > 32 µg/mL

C[C@@H](O)[C@H]1C(=O)N2C(C(=O)O)=C(S[C@@H]3CN[C@H](C(=O)N(C)C)C3)[C@H](C)[C@H]12 [Meropenem, meropenem]
MIC [1]: 0.03 µg/mL (≈ 0.0782 µM)
cells co-expressing cspD and rihC, RNA FISH [6]: ~ 0.85%
cells co-expressing rseB + yidC, RNA FISH [6]: ~ 12%
MIC ([7]; Escherichia coli): < 0.03 µg/mL
dead cells in the gated population (propidium iodide) [8, 14]: ~ 15.2%
live cells in the GFP-high population [8, 14]: about 94%
live cells in the GFP-low population [8, 14]: approximately 80%
heterogeneous expression of yhcN or cspD GFP reporters ([8]; MGH66:PyhcN:gfp, relative to untreated control): induced heterogeneous expression
persister cells in MGH66 over-expressing cspD versus without induction ([9]; 1% arabinose induction): ~ 100 times
tolerant cells/persisters in GFP-high versus GFP-low sorted subpopulation ([9]; MGH66:PcspD:gfp sorted after 30-minute exposure): enriched for meropenem tolerant cells
effect of cspD induction on MIC [10]: did not affect
impact on cell killing [11]: same impact on cell killing as ciprofloxacin and gentamicin
MIC [2]: 0.03 µg/mL (≈ 0.0782 µM)
cells co-expressing cspD and rihC, BacDrop ([3]; meropenem-treated MGH66): ~ 0.7%
cells co-expressing rseB + yidC, BacDrop ([3]; meropenem-treated MGH66): ~ 8%
cells in DNA replication and cell division subpopulation (cluster 9) [3, 15]: 1%
cells in cell wall/membrane synthesis subpopulation (cluster 7 and 11) [3, 15]: 5.7%
cells in cspD-expressing subpopulation (cluster 10) [3, 15]: 0.7%
cells in strongest stress response subpopulation (clusters 5 and 12) [3, 15]: 8%
transcriptional response in bulk RNA-seq relative to untreated control [4]: minimal transcriptional responses
MIC [5]: > 32 µg/mL

gentamicin
MICs [12]: 1 µg/mL
MICs [1]: 1 µg/mL
MICs [7]: <0.03 µg/mL
MICs [13]: 1 µg/mL
MICs [2]: 2 µg/mL
heterogeneity of single-cell transcriptional response ([3]; MGH66, 30 min treatment): did not detect obvious heterogeneity of response
treated cells belonging to the heat-shock response cluster ([3]; MGH66, 30 min treatment, across both replicates): 66%-71%
transcriptional response in bulk RNA-seq relative to untreated control [4]: induced a group of heat shock chaperone proteins
MICs [5]: 0.5 µg/mL
